Laboratory results published in US7414138B2, “Benzoxazole and benzodiazole UV-A sunscreens” (DSM IP Assets B.V., priority 2002, dated 2008).

Columns and labels:
[1] = Solubility measurement in cosmetic solvents (saturated solution, UV spectroscopy); settings: for solubility in Crodamol DA: Crodamol DA (diisopropyl adipate); for solubility in Crodamol DA / solubility in Cétiol LC: room temperature, 18 hours; for solubility in Cétiol LC: Cétiol LC (cocoyl caprylate caprate)
Experimental: An excess of the UV sunscreen was placed in a flask, containing Cétiol LC (cocoyl caprylate caprate) and Crodamol DA (diisopropyl adipate), respectively. The suspension was mixed and treated in an ultrasound bath for 10 minutes. After standing at room temperature for 18 hours, the solution over the remaining crystals was filtered through a millipore microfilter (pore size of 0.45 μm). The concentration of this saturated solution was determined by means of UV spectroscopy in comparison with a calibration curve.

[2] = Photostability, irradiation in high dilution with 150 W Hg-lamp (on-line Hg-lamp/HPLC); format: physicochemical; settings: for photostability (in words): irradiated in high dilution with a Hg-lamp 150 W from Heraeus
Experimental: The photostability is measured in an on-line system Hg-lamp/HPLC, using a 150 W Hg-lamp of Heraeus with Pyrex filter (2.3 mm) and a Teflon capillary tube with 0.3 mm inside diameter and a total length of 10 m. 3.6. mg of the sample is dissolved in 16 ml of MeOH and 10 μl of this solution injected. The degradation products are not separated. UV-absorption at a wavelength of 358 nm of the irradiated solution is measured periodically up to 14 minutes and the result is compared with the corresponding photostability of butyl methoxy dibenzoylmethane. The product was detected in >90%, indicating photostability, whereas only 16% of butyl methoxy dibenzoylmethane could be detected after 14 minutes of irradiation.
Alternatively, the measurement is performed according to the protocol described in the International Journal of Cosmetic Science 18, 167-177 (1996).

SMILES	melting point [°C]	solubility in Crodamol DA [1] [%]	solubility in Cétiol LC [1] [%]	product detected after irradiation ([2]; MeOH solution, 150 W Hg-lamp with Pyrex filter, UV-absorption at 358 nm, after 14 minutes of irradiation) [%]	photostability (in words) [2]	solubility in Cétiol LC (in words) ([1]; Cétiol LC)	solubility in Crodamol DA (in words) ([1]; Crodamol DA)
CCOC(=O)C(=Cc1ccc(-c2nc3ccccc3o2)cc1)C(=O)OCC [Example 1, 2-(4-Benzoxazol-2-yl-benzylidene)-malonic acid diethyl ester]	99 to 102	11	4.5	> 90	–	–	–
CCCCC(CC)COC(=O)/C(C#N)=C/c1ccc(-c2nc3cc(C(C)(C)C)ccc3o2)cc1 (stereo not shown) [Example 2, 2-Cyano-3-{4-[5-tert.-butyl-benzoxazol-2-yl]-phenyl}-acrylic acid 2-ethylhexyl ester]	80 to 81	7.4	3.8	–	photostable	–	–
CCCCOC(=O)C(=Cc1ccc(-c2nc3ccccc3o2)cc1)C(=O)OCCCC [Example 3, 2-(4-Benzoxazol-2-yl-benzylidene)-malonic acid dibutyl ester]	–	–	–	–	photostable	miscible	–
CCCCC(CC)COC(=O)/C(C#N)=C/c1ccc(-c2nc3ccccc3o2)cc1 (stereo not shown) [Example 4, 2-Cyano-3-{4-benzoxazol-2-yl-phenyl}-acrylic acid 2-ethylhexyl ester]	84 to 85	2.8	1.6	–	photostable after E/Z isomerisation	–	–
CCOC(=O)C(=Cc1ccc(-c2nc3ccc(O)cc3o2)cc1)C(=O)OCC [Example 6, 2-(4-[6-Hydroxy-benzoxazol-2-yl]-benzylidene)-malonic acid diethyl ester]	153 to 155	1.6	–	–	photostable	–	–
CCCCC(CC)COc1ccc2nc(-c3ccc(C=C(C(=O)OCC)C(=O)OCC)cc3)oc2c1 (stereo not shown) [Example 7]	50 to 52	–	10.2	–	photostable	–	–
CCOCCOCCOc1ccc2nc(-c3ccc(C=C(C(=O)OCC)C(=O)OCC)cc3)oc2c1 [Example 8]	43 to 45	–	4.6	–	photostable	–	–
C=C(COc1ccc2nc(-c3ccc(C=C(C(=O)OCC)C(=O)OCC)cc3)oc2c1)[Si](C)(O[Si](C)(C)C)O[Si](C)(C)C [Example 9]	–	–	–	–	excellent photostability	–	unlimited solubility
